Laboratory results reported in patent publication US20090012103A1, “SUBSTITUTED HETEROCYCLIC COMPOUNDS” (priority 2007, published 2009).

Legend:
[1] = target: T1, wild-type human cardiac sodium channel, hNav1.5 (Homo sapiens, UniProt Q14524); experiment: Late INa screening assay (late sodium current, PatchXpress whole cell patch clamp); format: cell-based; conditions: compound at 10 μM; read-out: Late INa % blk
[2] = target: T1, wild-type human cardiac sodium channel, hNav1.5; experiment: Peak INa screening assay (tonic block TB and use-dependent block UDB of peak sodium current); format: cell-based; conditions: compound at 10 μM
Method: The late sodium current (Late INa) and peak sodium current (Peak INa) assays are performed on an automated electrophysiology platform, PatchXpress 7000A (MDS Analytical Technologies, Sunnyvale, Calif.), which uses the whole cell patch clamp technique to measure currents through the cell membrane of up to 16 cells at a time. The assay uses an HEK293 (human embryonic kidney) cell line heterologously expressing the wild-type human cardiac sodium channel, hNav1.5, purchased from Millipore (Billerica, Mass.). No beta subunits were coexpressed with the Na channel alpha subunit. […] Experiments are carried out at 24-27° C.
For both the Late INa and Peak INa assays, series resistance compensation is set to 50% and whole-cell compensation is performed automatically. […] Currents through open sodium channels are automatically recorded and stored in the DataXpress2 database (MDS Analytical Technologies, Sunnyvale, Calif.). Analysis is performed using DataXpress2 analysis software and data are compiled in Excel.
Compound stocks are routinely made in glass vials to 10 mM in dimethyl sulfoxide (DMSO). In some cases, when compounds are not soluble in DMSO, they are made in 100% ethanol. Stocks are sonicated as necessary. The extracellular solution for screening Late INa is composed of: 140 mM NaCl, 4 mM KCl, 1.8 mM CaCl2, 0.75 mM MgCl2, and 5 mM HEPES with pH adjusted to 7.4 using NaOH. The extracellular solution for screening Peak INa is composed of: 20 mM NaCl, 120 mM N-methyl-D glucamine, 4 mM KCl, 1.8 mM CaCl2, 0.75 mM MgCl2, and 5 mM HEPES with pH adjusted to 7.4 using HCl. The intracellular solution used to perfuse the inside of the cells for both the Late INa and Peak INa assays contains: 120 mM CsF, 20 mM CsCl, 5 mM EGTA, 5 mM HEPES and pH adjusted to 7.4 with CsOH. Compounds are diluted in extracellular solution to 10 μM in glass vials and then transferred to glass well plates before robotic addition to the cells. The 0 Na extracellular solution used at the end of each experiment for the Late INa and Peak INa assays to measure baseline current contains: 140 mM N-methyl-D-glucamine; 4 mM KCl; 1.8 mM CaCl2; 0.75 mM MgCl2; 5 mM HEPES and pH was adjusted to 7.4 with HCl.
Compounds were also evaluated for their effect in several other assays, including their effect on Peak INa. In some cases, the effect on Peak INa was measured using data from the Late INa assay. […] Since the peak INa can be very large, introducing artifacts in the recording, the concentration of Na^+ in the bath is reduced to 20 mM and a nonpermeant cation is added to compensate for the Na^+ that was omitted from the standard extracellular solution (see above). The peak INa assay uses a holding potential of −100 mV and a 20 ms test pulse to 0 mV to activate the channel. As in the Late INa assay, stepping the voltage to 0 mV causes a rapid increase in negative Na current through hNav1.5 that inactivates within a few ms. No late INa activator is added for the peak assay.
For the separate peak INa assay, both tonic (TB) block and use-dependent (UDB) block of peak inward sodium current by 10 μM compound are determined. TB is block of the channel in the resting state, before the channel opens. TB is simulated in this assay by stimulating the channel to open at a low frequency (0.1 Hz). This is done in order to measure the control current amplitude and monitor current rundown, enabling correction for rundown in the calculation of percent block for TB.

[3] = target: hERG potassium channel (Homo sapiens, UniProt Q12809); experiment: hERG screening assay (PatchXpress patch clamp, CHO cell line)
Chain of hERG potassium channel (Q12809 whole entry): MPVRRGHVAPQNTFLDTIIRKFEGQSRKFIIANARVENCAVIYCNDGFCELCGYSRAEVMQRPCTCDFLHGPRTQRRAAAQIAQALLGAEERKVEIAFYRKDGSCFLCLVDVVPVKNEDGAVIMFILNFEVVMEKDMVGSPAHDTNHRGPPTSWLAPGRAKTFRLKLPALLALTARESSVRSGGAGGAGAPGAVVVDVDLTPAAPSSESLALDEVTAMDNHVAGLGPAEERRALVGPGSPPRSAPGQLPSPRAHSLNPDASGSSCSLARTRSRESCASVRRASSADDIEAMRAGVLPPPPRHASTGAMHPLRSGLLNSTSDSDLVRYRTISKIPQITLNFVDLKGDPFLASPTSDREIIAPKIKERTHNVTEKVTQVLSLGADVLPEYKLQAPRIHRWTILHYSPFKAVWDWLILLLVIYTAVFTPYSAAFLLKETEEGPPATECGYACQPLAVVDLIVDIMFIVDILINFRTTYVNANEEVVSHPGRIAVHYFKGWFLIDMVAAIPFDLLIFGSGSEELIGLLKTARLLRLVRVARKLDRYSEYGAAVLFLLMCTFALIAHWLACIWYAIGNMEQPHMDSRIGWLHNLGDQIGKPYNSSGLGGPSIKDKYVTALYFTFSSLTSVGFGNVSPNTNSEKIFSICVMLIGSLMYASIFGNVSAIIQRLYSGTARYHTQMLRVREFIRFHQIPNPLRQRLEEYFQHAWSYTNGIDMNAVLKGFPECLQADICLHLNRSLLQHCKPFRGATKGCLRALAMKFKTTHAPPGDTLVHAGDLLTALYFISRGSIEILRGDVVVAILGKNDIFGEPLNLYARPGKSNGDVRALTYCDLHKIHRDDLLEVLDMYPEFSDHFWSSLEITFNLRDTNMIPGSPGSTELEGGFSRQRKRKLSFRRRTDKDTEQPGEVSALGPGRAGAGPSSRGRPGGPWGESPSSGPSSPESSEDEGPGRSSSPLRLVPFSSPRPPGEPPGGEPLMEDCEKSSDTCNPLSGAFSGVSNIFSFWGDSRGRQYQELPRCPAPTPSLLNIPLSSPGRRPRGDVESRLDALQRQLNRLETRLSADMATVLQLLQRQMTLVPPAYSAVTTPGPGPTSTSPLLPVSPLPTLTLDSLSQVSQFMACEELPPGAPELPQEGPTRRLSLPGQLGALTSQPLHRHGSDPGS

[4] = tonic block, read-out: Tonic Peak INa % blk
[5] = use-dependent block, read-out: UDB Peak INa % blk

T1 sequence (Q14524 whole entry): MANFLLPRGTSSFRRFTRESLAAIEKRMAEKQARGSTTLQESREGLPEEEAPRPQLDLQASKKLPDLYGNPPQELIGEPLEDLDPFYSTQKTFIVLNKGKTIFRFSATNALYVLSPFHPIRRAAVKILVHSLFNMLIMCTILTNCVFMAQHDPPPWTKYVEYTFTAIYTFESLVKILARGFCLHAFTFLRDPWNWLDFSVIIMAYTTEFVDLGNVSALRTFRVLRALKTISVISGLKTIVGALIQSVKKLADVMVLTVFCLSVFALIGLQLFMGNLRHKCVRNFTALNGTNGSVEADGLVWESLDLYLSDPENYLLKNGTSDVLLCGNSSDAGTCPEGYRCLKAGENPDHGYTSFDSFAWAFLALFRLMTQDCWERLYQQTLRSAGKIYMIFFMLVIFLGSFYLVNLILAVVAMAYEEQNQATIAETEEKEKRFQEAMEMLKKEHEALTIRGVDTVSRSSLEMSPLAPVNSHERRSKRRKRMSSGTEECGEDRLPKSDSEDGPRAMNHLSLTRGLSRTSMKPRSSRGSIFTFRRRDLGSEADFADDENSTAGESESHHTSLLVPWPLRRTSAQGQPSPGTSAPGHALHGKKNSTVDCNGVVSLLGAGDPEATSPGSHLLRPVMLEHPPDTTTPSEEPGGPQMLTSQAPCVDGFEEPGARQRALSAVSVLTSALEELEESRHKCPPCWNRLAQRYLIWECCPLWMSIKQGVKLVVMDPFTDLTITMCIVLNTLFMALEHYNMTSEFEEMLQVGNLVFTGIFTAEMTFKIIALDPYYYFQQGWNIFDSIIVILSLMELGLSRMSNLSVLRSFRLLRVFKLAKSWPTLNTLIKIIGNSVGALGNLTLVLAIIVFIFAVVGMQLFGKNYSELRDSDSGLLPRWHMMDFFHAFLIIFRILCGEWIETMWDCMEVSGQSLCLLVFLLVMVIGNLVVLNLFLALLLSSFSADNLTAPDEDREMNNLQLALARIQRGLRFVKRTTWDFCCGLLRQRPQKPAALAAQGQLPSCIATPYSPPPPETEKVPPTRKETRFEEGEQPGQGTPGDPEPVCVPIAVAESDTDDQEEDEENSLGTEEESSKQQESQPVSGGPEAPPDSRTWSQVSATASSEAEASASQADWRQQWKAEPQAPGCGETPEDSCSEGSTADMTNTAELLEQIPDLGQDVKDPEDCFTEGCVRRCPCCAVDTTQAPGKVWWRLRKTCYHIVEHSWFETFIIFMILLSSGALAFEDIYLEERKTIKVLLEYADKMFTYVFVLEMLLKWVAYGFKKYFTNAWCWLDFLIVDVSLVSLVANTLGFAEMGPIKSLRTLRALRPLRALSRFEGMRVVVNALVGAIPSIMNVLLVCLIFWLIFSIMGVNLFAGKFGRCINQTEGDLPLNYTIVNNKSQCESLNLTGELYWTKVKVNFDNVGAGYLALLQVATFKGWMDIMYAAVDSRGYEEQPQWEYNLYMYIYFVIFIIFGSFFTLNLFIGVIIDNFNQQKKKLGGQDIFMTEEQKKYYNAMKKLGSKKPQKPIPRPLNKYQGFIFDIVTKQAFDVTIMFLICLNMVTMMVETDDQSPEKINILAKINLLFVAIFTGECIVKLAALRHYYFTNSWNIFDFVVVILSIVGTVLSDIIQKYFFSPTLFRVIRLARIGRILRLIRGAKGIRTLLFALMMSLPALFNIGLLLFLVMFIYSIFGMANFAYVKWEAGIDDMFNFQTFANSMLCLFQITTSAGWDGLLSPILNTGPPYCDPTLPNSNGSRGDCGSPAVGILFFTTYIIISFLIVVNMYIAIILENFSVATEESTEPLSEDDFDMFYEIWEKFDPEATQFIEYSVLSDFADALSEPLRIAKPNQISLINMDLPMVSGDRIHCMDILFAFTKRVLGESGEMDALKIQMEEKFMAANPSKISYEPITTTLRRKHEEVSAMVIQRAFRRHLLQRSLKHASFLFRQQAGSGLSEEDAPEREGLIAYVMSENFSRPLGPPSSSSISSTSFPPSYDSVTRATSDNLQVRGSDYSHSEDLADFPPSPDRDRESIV

SMILES | inhibition at 10 µM [1] [%] | inhibition at 10 µM [2, 4] [%] | hERG Patch Clamp hERG % blk ([3]; 1 μM) [%] | hERG Patch Clamp hERG % blk ([3]; 10 μM) [%] | inhibition at 10 µM [2, 5] [%]
CC1=C(C(=O)OCc2ccccc2)[C@@H](c2ccccc2-c2ccc(C)o2)n2nnnc2N1 [PT-235, (R)-benzyl 5-methyl-7-(2-(5-methylfuran-2-yl)phenyl)-4,7-dihydrotetrazolo[1,5-a]pyrimidine-6-carboxylate] | 71.4 | 28.1 | 10.0 | 41.5 | 
CCOC(=O)C1=C(C)NC(C)=C(C(=O)OCC)C1c1cc2ccccc2s1 [PT-114, diethyl 4-(benzo[b]thiophen-2-yl)-2,6-dimethyl-1,4-dihydropyridine-3,5-dicarboxylate] | 85 | 13.1 | 20.9 | 51.5 | 
CC1=C(C(=O)OCc2ccccc2)C(c2nccs2)c2cn[nH]c2N1 (centres unmarked) [PT-369, benzyl 6-methyl-4-(thiazol-2-yl)-4,7-dihydro-1H-pyrazolo[3,4-b]pyridine-5-carboxylate] | 47.3 | 26.3 | 10.0 | 25.0 | 13.5
CC1=C(c2nnc(Cc3ccccc3)o2)C(c2cccc3ccccc23)C2=C(CCCC2=O)N1 (centres unmarked) [PT-276, 3-(5-benzyl-1,3,4-oxadiazol-2-yl)-2-methyl-4-(naphthalen-1-yl)-4,6,7,8-tetrahydroquinolin-5(1H)-one] | 49.7 | 31.3 |  |  | 13
CC1=C(C(=O)O[C@@H](C)c2ccccc2)C(c2sc3ccccc3c2C)n2nccc2N1 (stereo partly drawn) [PT-244, (S)-1-phenylethyl 5-methyl-7-(3-methylbenzo[b]thiophen-2-yl)-4,7-dihydropyrazolo[1,5-a]pyrimidine-6-carboxylate] | 68.7 | 66.2 |  |  | 44
CC1=C(C(=O)OCc2ccccc2)C(c2ccccc2OCCN(C)C)n2nnnc2N1 (centres unmarked) [PT-374, benzyl 7-(2-(2-(dimethylamino)ethoxy)phenyl)-5-methyl-4,7-dihydrotetrazolo[1,5-a]pyrimidine-6-carboxylate] | 66.3 | 38.7 |  |  | 
CCOC(=O)C1=C(C)NC(C)=C(C(=O)OCC)C1c1ccc2c(c1)OCCO2 [PT-109, diethyl 4-(2,3-dihydrobenzo[b][1,4]dioxin-6-yl)-2,6-dimethyl-1,4-dihydropyridine-3,5-dicarboxylate] |  | 18.1 | 16.0 | 34.2 | 
CCOC(=O)C1=C(C)Nc2nnnn2C1c1sccc1-c1cccc(F)c1 (centres unmarked) [PT-496, ethyl 7-(3-(3-fluorophenyl)thiophen-2-yl)-5-methyl-4,7-dihydrotetrazolo[1,5-a]pyrimidine-6-carboxylate] | 84.2 | 36.8 |  |  | 9.1
CC1=C(C(=O)OCc2ccccc2)C(c2ccc3ccccc3c2)C2=C(CCCC2=O)N1 (centres unmarked) [PT-320, benzyl 2-methyl-4-(naphthalen-2-yl)-5-oxo-1,4,5,6,7,8-hexahydroquinoline-3-carboxylate] | 51 | 16.7 |  |  | 26.5
COc1cc([N+](=O)[O-])ccc1C1C(C(=O)OCc2ccccc2)=C(C)Nc2ccnn21 (centres unmarked) [PT-394, benzyl 7-(2-methoxy-4-nitrophenyl)-5-methyl-4,7-dihydropyrazolo[1,5-a]pyrimidine-6-carboxylate] | 45.2 | 15.4 |  |  | 8
CCOC(=O)[C@@H]1CCCN(c2cc(OC)ccc2C2C(C(=O)OCc3ccccc3)=C(C)Nc3nnnn32)C1 (stereo partly drawn) [PT-373, benzyl 7-(2-((R)-3-(ethoxycarbonyl)piperidin-1-yl)-4-methoxyphenyl)-5-methyl-4,7-dihydrotetrazolo[1,5-a]pyrimidine-6-carboxylate] | 64.9 | 22.5 |  |  | 
N#CC1=C(N)OC2=C(C(=O)CC(c3ccccc3)C2)C1c1ccsc1 (centres unmarked) [PT-102, 2-amino-5-oxo-7-phenyl-4-(thiophen-3-yl)-5,6,7,8-tetrahydro-4H-chromene-3-carbonitrile] | 44.9 | 2.7 |  |  | 
CC1=C(C(=O)OCC2CC2)C(c2c(Br)sc3ccccc23)n2nnnc2N1 (centres unmarked) [PT-426, cyclopropylmethyl 7-(2-bromobenzo[b]thiophen-3-yl)-5-methyl-4,7-dihydrotetrazolo[1,5-a]pyrimidine-6-carboxylate] | 81 | 60.1 |  |  | 50.7
CCOC(=O)C1=C(C)NC(C)=C(C(=O)OCC)C1c1ccsc1 [PT-110, diethyl 2,6-dimethyl-4-(thiophen-3-yl)-1,4-dihydropyridine-3,5-dicarboxylate] | 41.8 | 0 |  |  | 
CC1=C(C(=O)O[C@@H](C)c2ccccc2)C(c2cccc3ccccc23)n2nnnc2N1 (stereo partly drawn) [PT-048, (S)-1-phenylethyl 5-methyl-7-(naphthalen-1-yl)-4,7-dihydrotetrazolo[1,5-a]pyrimidine-6-carboxylate] | 90.8 | 58.6 |  |  | 
CC1=C(C(=O)OC(c2ccc(F)cc2)c2ccc(F)cc2)C(c2cccs2)n2nnnc2N1 (centres unmarked) [PT-423, bis(4-fluorophenyl)methyl 5-methyl-7-(thiophen-2-yl)-4,7-dihydrotetrazolo[1,5-a]pyrimidine-6-carboxylate] | 67.2 | 18.5 |  |  | 20.4
CC1=C(C(=O)OCc2ccccc2)C(c2ccc(N(C)C)c3ccccc23)c2cn[nH]c2N1 (centres unmarked) [PT-332, benzyl 4-(4-(dimethylamino)naphthalen-1-yl)-6-methyl-4,7-dihydro-1H-pyrazolo[3,4-b]pyridine-5-carboxylate] | 20 | 11.3 |  |  | 2.7
CCOC(=O)C1=C(C)Nc2nnnn2C1c1c(Br)sc2ccccc12 (centres unmarked) [PT-489, ethyl 7-(2-bromobenzo[b]thiophen-3-yl)-5-methyl-4,7-dihydrotetrazolo[1,5-a]pyrimidine-6-carboxylate] | 80.7 | 46.2 |  |  | 29.2
CC1=C(C(=O)OCc2ccccc2)C(c2sccc2Br)n2nnnc2N1 (centres unmarked) [PT-401, benzyl 7-(3-bromothiophen-2-yl)-5-methyl-4,7-dihydrotetrazolo[1,5-a]pyrimidine-6-carboxylate] | 77.3 | 25.9 |  |  | 
CCOC(=O)C1=C(C)Nc2nnnn2C1c1ccccc1I (centres unmarked) [PT-492, ethyl 7-(2-iodophenyl)-5-methyl-4,7-dihydrotetrazolo[1,5-a]pyrimidine-6-carboxylate] | 39.3 | 0.3 |  |  | 
CCOC(=O)C1=C(C)Nc2nnnn2C1c1cccc(OCc2cccc(C(=O)OC)c2)c1 (centres unmarked) [PT-495, ethyl 7-(3-(3-(methoxycarbonyl)benzyloxy)phenyl)-5-methyl-4,7-dihydrotetrazolo[1,5-a]pyrimidine-6-carboxylate] | 54.2 | 20.7 |  |  | 11.6
CC1=C(C(=O)OCc2ccccc2)C(c2sccc2-c2ccccc2)n2nnnc2N1 (centres unmarked) [PT-352, benzyl 5-methyl-7-(3-phenylthiophen-2-yl)-4,7-dihydrotetrazolo[1,5-a]pyrimidine-6-carboxylate] | 76.3 | 17.7 |  |  | 
